Data: US20240050033A1, “PERFUSION DEVICE FOR EVALUATING BLOOD PARAMETERS” (SEDICIDODICI S.R.L., priority 2020, published 2024)

Experiments:
[1] = tested on: fibrin; test: ex-vivo dynamic evaluation of fibrin formation in a whole-blood sample flowing through a perfusion chamber (fluorescence imaging); assay type: cell-based, human; conditions: mean value, blood of subjects under the therapy; 8-bit acquisition system
Source text: (§1) The present invention firstly relates to a method for the dynamic “ex-vivo” evaluation of the coagulation process in a patient's blood sample, characterized in that such a method comprises the simultaneous determination on the same blood sample of both the time, quantity and speed of platelet aggregate formation and of fibrin formation time, quantity and speed.
According to some embodiments, the method of the invention comprises the following steps: • a) providing a whole-blood sample taken from a subject and added with an anti-coagulant substance; • b) treating the blood sample of step a) with a solution consisting of fluorescent probes for marking platelets and fibrin capable of binding more or less specifically to platelets and fibrin and emitting fluorescent light on two different emission frequencies and of a recalcification solution of the blood sample. The two aforesaid solutions can also be combined in a single solution or single reagent; • c) introducing said recalcified blood sample into an analytical device having at least one perfusion chamber, in which at least one wall consists of a transparent material comprising a cytoadhesive substance, the blood sample being made to flow into the perfusion chamber in known and measurable flow conditions; • d) during the blood flow in the perfusion chamber, alternately acquiring at least two series of fluorescence images, so that at least one series of fluorescence images is acquired at an emission wavelength characteristic of the fluorescent probe for platelets and at least one other series of fluorescence images is acquired at another emission wavelength characteristic of the fluorescent probe for fibrin; • e) binarizing the pixels of the acquired images for the platelets and for the fibrin, so as to generate a first curve of area covered by illuminated pixels vs. time (t) for the formation of a platelet aggregate and a second curve of area covered by illuminated pixels vs. time for the fibrin formation; • f) generating a first curve of average fluorescence intensity vs. time for the formation of the platelet aggregate and a second curve of average fluorescence intensity vs. time for the fibrin formation; • in which the method comprises at least one of the following steps: • g) generating a first integrated density curve defined as the product of area and fluorescence intensity vs. time for the formation of the platelet aggregate and a second integrated density curve defined as the product of area and fluorescence intensity vs. time for the fibrin formation; • h) generating a curve of particle number vs. time, in which the number of particles is given by the number of platelet aggregates consisting of more than 2 illuminated pixels; • i) generating a curve of particle size vs. time, in which the particle size is given by the average size of the platelet aggregates consisting of more than 2 illuminated pixels; • j) generating values of maximum slope, defined as the relative maximum points of the first derivative function calculated for the curves of the parameter obtained in said at least one step e), f), g), h) and i); • k) generating values of maximum acceleration, defined as the relative maximum points of the second derivative function calculated for the curves of the parameter obtained in said at least one step e), f), g), h) and i); • l) generating values of F/P ratio, defined as the ratio of the AUCs of fibrin to the AUCs of the platelets of the parameter obtained in said at least one step e), f) and g); • the method further comprising the steps of: • m) generating a lag time value representing the fibrin formation time defined as the time corresponding to the first occurrence of five consecutive images in which the value of the measured area related to fibrin is >1% of the maximum peak value of the curve; • n) generating AUC (Area Under the Curve) values given by the area under the curve of each parameter obtained in steps e), f), g), h) and i). […]

[2] = tested on: platelets; test: ex-vivo dynamic evaluation of platelet aggregate formation in a whole-blood sample flowing through a perfusion chamber (fluorescence imaging); assay type: cell-based, human; conditions: mean value, blood of subjects under the therapy; 8-bit acquisition system
Source text: as §1
According to some embodiments, the method of the invention comprises the following steps: • a) providing a whole-blood sample taken from a subject and added with an anti-coagulant substance; • b) treating the blood sample of step a) with a solution consisting of fluorescent probes for marking platelets and fibrin capable of binding more or less specifically to platelets and fibrin and emitting fluorescent light on two different emission frequencies and of a recalcification solution of the blood sample. […]

For `CC(=O)Oc1ccccc1C(=O)O` [ASA, acetylsalicylic acid], the “F/P Area (AUC Area ratio of fibrin to platelets)” value [1] was 1.0, the “F/P ID (AUC ID ratio of fibrin to platelets)” value [1] was 2.2 and the “F/P MGV (AUC MGV ratio of fibrin to platelets)” value [1] was 1.2. For the same molecule, the “Fibrin AUC Area (area under the curve of the area curve)” value [1] was 3.0 ×10^7, the “Fibrin AUC ID (area under the curve of the integrated density curve)” value [1] was 4.3 ×10^9 and the “Fibrin AUC MGV (area under the curve of the fluorescence intensity curve)” value [1] was 2.0 ×10^4. The “Lag Time (fibrin formation time)” value [1] was 267.5 s, the “Platelets AUC Area (area under the curve of the area curve)” value [2] was 3.4 ×10^7 and the “Platelets AUC ID (area under the curve of the integrated density curve)” value [2] was 3.0 ×10^9. The “Platelets AUC MGV (area under the curve of the fluorescence intensity curve)” value [2] was 2.0 ×10^4.
